21 compounds from patent US20250066379A1, “ANTIMALARIAL AGENTS” (Merck Sharp & Dohme LLC, priority 2021, published 2025) can be followed below.

The experiment has as its system parasite. Nature of the experiment: Parasite LDH growth assay (Parasite Assay). The format is cell-based, Plasmodium falciparum. As to conditions: ring stage parasites, 72 hours growth at 37° C., LDH readout of parasite growth. As for the experimental part: Assessing Antiparasite Potency in a Parasite LDH Growth Assay (Parasite Assay) The parasite stock was maintained at 4% haematocrit in RPMI-Hepes media 30 buffered with sodium bicarbonate and supplemented with 5% heat inactivated human serum and 0.5% albumax. Approximately 42 hours prior to the potency assay being set up, parasites were synchronized with 5% sorbitol to select for ring stage parasites. On the day of assay set up, a blood smear of the parasite culture was Giemsa stained and counted. The parasitemia was 35 adjusted to 0.7% rings and the haematocrit was diluted to 2% in RPMI-Hepes media buffered with sodium bicarbonate and supplemented with 5% heat inactivated human serum and 0.5% albumax. 30 ul of diluted parasites are then added into 10 μl of media+compound in pre-prepared Greiner TC assay plates. Parasite assay plates were placed in gassed humidified boxes in single layer and allowed to incubate at 37° C. for 72 hours. After 72 hours growth, assay plates are sealed with parafilm and frozen flat, in single file at −80° C. overnight. On the following day, assay plates were allowed to thaw at room temperature for 4 hours to which an LDH assay was performed to measure parasite growth.

The compound `CC[C@]12CCC/C=C\Cc3ccc4c(c3)[C@H](CC(C)(C)O4)NC(=O)c3ccc4c(c3)[C@@H](CCO4)N(C(=N)N1)C(=O)C2` [Example 10, (1R,5R,9Z,19S)-5-ethyl-3-imino-17,17-dimethyl-16,26-dioxa-2,4,20-triazahexacyclo[20. 6.2.22,5.212,15.014, 19.025,29] tetratriaconta-9,12,14,22(30),23, 25(29),31-heptaene-21,34-dione] registered an EC50 (Plasmodium falciparum, 72 h) of 2.5 nM. As to `CCC12CCCCCc3ccc4c(c3)[C@@H](NC(=O)c3ccc5c(c3)[C@@H]([C@H](COC)CO5)N(C(=N)N1)C(=O)C2)[C@H](O)C4` (single isomer, unassigned) [Example 15B], the EC50 was found to be 81 nM. Compound `CC[C@]12CCCC(C)c3ccc4c(c3)[C@@H](NC(=O)c3ccc5c(c3)[C@@H](CCO5)N(C(=N)N1)C(=O)C2)[C@H](O)C4` (stereo partly drawn) [Example 1, (1R,5R,15R,16R)-5-ethyl-15-hydroxy-3-imino-9-methyl-23-oxa-2,4,17-triazahexacyclo[17.6.2.22,5.210,13.012,16.022,26]hentriaconta-10,12,19,21,26,28-hexaene-18,31-dione] returned a concentration for a half-maximal effect (EC50) (Plasmodium falciparum, 72 h) of 2.7 nM. On the same count and under the same terms, the result for `CC[C@@]12CCCCc3ccc4c(c3)[C@H](CC(C)(C)O4)NC(=O)c3ccc4c(c3)[C@@H](CCO4)N(C(=N)N1)C(=O)C2` [Example 3B, (1R,5S,17S)-5-ethyl-3-imino-15,15-dimethyl-14,24-dioxa-2,4,18-triazahexacyclo[18. 6.2.22,5.210,13.012, 17.023,27] dotriaconta-10,12,20,22,27,29-hexaene-19,32-dione] reads 270 nM; that for `CC[C@]12CCCCc3ccc4c(c3)[C@H](CC(C)(C)O4)NC(=O)c3ccc4c(c3)[C@@H](CCO4)N(C(=N)N1)C(=O)C2` [Example 3A, (1R,5R,17S)-5-ethyl-3-imino-15,15-dimethyl-14,24-dioxa-2,4,18-triazahexacyclo[18.6.2.22,5.210,13.012,17.023,27]dotriaconta-10,12,20,22,27,29-hexaene-19,32-dione], 0.2 nM; that for `CC[C@]12CCCC3CC3c3ccc4c(c3)[C@H](CCO4)NC(=O)c3ccc4c(c3)[C@@H](CCO4)N(C(=N)N1)C(=O)C2` (mixture of isomers) [Example 21, rac-(8R,12R,22S)-8-ethyl-10-imino-15,25-dioxa-9,11,21-triazaheptacyclo[20. 6.2.28,11.216,19.02, 4.012,17.026,30] tetratriaconta-1(29),16(32),17,19 (31),26(30),27-hexaene-20,33-dione], 5.1 nM. Regarding `CCC12CCCCCCCc3ccc4c(c3)OC(C)(C)C[C@@H]4NC(=O)c3ccc4c(c3)[C@@H](CCO4)N(C(=N)N1)C(=O)C2` (racemic) [Example 24A, rac-(1R,21S)-5-ethyl-3-imino-19,19-dimethyl-18,28-dioxa-2,4,22-triazahexacyclo[22. 6.2.22,5.113,17.016, 21.027,31] pentatriaconta-13(33),14,16,24,26, 31-hexaene-23,35-dione], the EC50 turned out to be 5.4 nM.

As to `CC[C@]12CCC/C=C/c3ccc4c(c3)[C@H](CCO4)NC(=O)c3ccc4c(c3)[C@@H](CCO4)N(C(=N)N1)C(=O)C2` (racemic) [Example 18, rac-(1R,5R,9E,18S)-5-ethyl-3-imino-15,25-dioxa-2,4,19-triazahexacyclo[19. 6.2.22,5.211,14.013, 18.024,28] tritriaconta-9,11,13,21,23,28,30-heptaene-20,33-dione], the EC50 (Plasmodium falciparum, 72 h) worked out at 6 nM. Still for that read-out and setting: the same measure for `CC[C@]12CCCCCc3ccc4c(c3)[C@H](CCO4)NC(=O)c3ccc4c(c3)[C@@H](CCO4)N(C(=N)N1)C(=O)C2` (racemic) [Example 19, rac-(1R,5R,18S)-5-ethyl-3-imino-15,25-dioxa-2,4,19-triazahexacyclo[19. 6.2.22,5.211,14.013, 18.024,28] tritriaconta-11,13,21,23,28,30-hexaene-20,33-dione]: 4.8 nM.

The compound `CCC12CCCCCc3ccc4c(c3)[C@@H](NC(=O)c3ccc5c(c3)[C@@H]([C@H](COC)CO5)N(C(=N)N1)C(=O)C2)[C@H](O)C4` (single isomer, unassigned) [Example 15A] had an EC50 of 9.2 nM.

Turning to `CCC12CCCCC/C=C\c3ccc4c(c3)OC(C)(C)C[C@@H]4NC(=O)c3ccc4c(c3)[C@@H](CCO4)N(C(=N)N1)C(=O)C2` (racemic) [Example 23, rac-(1R,11Z,21S)-5-ethyl-3-imino-19,19-dimethyl-18,28-dioxa-2,4,22-triazahexacyclo[22. 6.2.22,5.113,17.016, 21.027,31] pentatriaconta-11,13(33),14,16,24, 26,31-heptaene-23,35-dione], the 50% effective concentration (EC50) (Plasmodium falciparum, 72 h) is 7.5 nM. Take `CCC12CCC/C=C/c3ccc4c(c3)[C@H](CC(C)(C)O4)NC(=O)c3ccc4c(c3)[C@@H]([C@H](COC)CO4)N(C(=N)N1)C(=O)C2` (mixture of isomers) [Example 26A, rac-(1R,9E,18S,27R)-5-ethyl-3-imino-27-(methoxymethyl)-16,16-dimethyl-15,25-dioxa-2,4,19-triazahexacyclo[19. 6.2.22,5.211,14.013, 18.024,28] tritriaconta-9,11,13,21,23,28,30-heptaene-20,33-dione]: the EC50 was 190 nM. For the compound `CCC12CCCCCc3ccc4c(c3)[C@H](CC(C)(C)O4)NC(=O)c3ccc4c(c3)[C@@H]([C@H](COC)CO4)N(C(=N)N1)C(=O)C2` (stereo partly drawn) [Example 16A, (1R,18S,27R)-5-ethyl-3-imino-27-(methoxymethyl)-16,16-dimethyl-15,25-dioxa-2,4,19-triazahexacyclo[19. 6.2.22,5.211,14.013, 18.024,28] tritriaconta-11,13,21,23,28,30-hexaene-20,33-dione], a half-maximal effect (Plasmodium falciparum, 72 h) (EC50) was put at 61.5 nM.

Regarding `CCC12CCCCCc3ccc4c(c3)[C@H](CC(C)(C)O4)NC(=O)c3ccc4c(c3)[C@@H]([C@H](COC)CO4)N(C(=N)N1)C(=O)C2` (mixture of isomers) [Example 16B, rac-(1R,18S,27R)-5-ethyl-3-imino-27-(methoxymethyl)-16,16-dimethyl-15,25-dioxa-2,4,19-triazahexacyclo[19. 6.2.22,5.211,14.013, 18.024,28] tritriaconta-11,13,21,23,28,30-hexaene-20,33-dione], a half-maximal effect (Plasmodium falciparum, 72 h) (EC50) was put at 3.4 nM. As to `CC[C@]12CCC/C=C/c3ccc4c(c3)[C@@H](NC(=O)c3ccc5c(c3)[C@@H](CCO5)N(C(=N)N1)C(=O)C2)[C@H](O)C4` [Example 5, (1R,5R,9E,16R, 17R)-5-ethyl-16-hydroxy-3-imino-24-oxa-2,4,18-triazahexacyclo[18. 6.2.22,5.211,14.013, 17.023,27] dotriaconta-9,11,13,20,22,27, 29-heptaene-19,32-dione], the EC50 (Plasmodium falciparum, 72 h) came to 0.9 nM. Still for that read-out and setting: the same measure for `CC[C@]12CCC/C=C/c3ccc4c(c3)[C@H](CC(C)(C)O4)NC(=O)c3ccc4c(c3)[C@@H](CCO4)N(C(=N)N1)C(=O)C2` [Example 7, (1R,5R,9E,18S)-5-ethyl-3-imino-16,16-dimethyl-15,25-dioxa-2,4,19-triazahexacyclo[19. 6.2.22,5.211,14.013, 18.024,28] tritriaconta-9,11,13,21,23,28, 30-heptaene-20,33-dione]: 0.9 nM. The compound `CCC12CCCCCCCc3ccc4c(c3)OC(C)(C)C[C@@H]4NC(=O)c3ccc4c(c3)[C@@H](CCO4)N(C(=N)N1)C(=O)C2` (racemic) [Example 24B, rac-(1R,21S)-5-ethyl-3-imino-19,19-dimethyl-18,28-dioxa-2,4,22-triazahexacyclo[22. 6.2.22,5.113,17.016, 21.027,31] pentatriaconta-13(33),14,16,24,26, 31-hexaene-23,35-dione] registered an EC50 of 2 nM. That is a single-digit nanomolar value.

In the case of `CC[C@]12CCC/C=C/Cc3ccc4c(c3)OC(C)(C)C[C@@H]4NC(=O)c3ccc4c(c3)[C@@H](CCO4)N(C(=N)N1)C(=O)C2` [Example 11, (1R,5R,9E,20S)-5-ethyl-3-imino-18,18-dimethyl-17,27-dioxa-2,4,21-triazahexacyclo[21. 6.2.22,5.112,16.015, 20.026,30] tetratriaconta-9,12(32),13,15,23, 25,30-heptaene-22,34-dione], the EC50 (Plasmodium falciparum, 72 h) turned out to be 4.6 nM. In the case of `CCC12CCC/C=C/c3ccc4c(c3)[C@H](CC(C)(C)O4)NC(=O)c3ccc4c(c3)[C@@H]([C@H](COC)CO4)N(C(=N)N1)C(=O)C2` (mixture of isomers) [Example 26B, rac-(1R,9E,18S,27R)-5-ethy1-3-imino-27-(methoxymethyl)-16,16-dimethyl-15,25-dioxa-2,4,19-triazahexacyclo[19. 6.2.22,5.211,14.013, 18.024,28] tritriaconta-9,11,13,21,23,28,30-heptaene-20,33-dione], the midpoint of the response, the EC50, lay at 7.4 nM. In turn, `CCC12CCCC3CC3c3ccc4c(c3)[C@H](CC(C)(C)O4)NC(=O)c3ccc4c(c3)[C@@H]([C@H](COC)CO4)N(C(=N)N1)C(=O)C2` (mixture of isomers) [Example 17, rac-(12R,13R,22S)-8-ethyl-10-imino-13-(methoxymethyl)-24,24-dimethyl-15,25-dioxa-9,11,21-triazaheptacyclo[20. 6.2.28,11.216,19.02, 4.012,17.026,30] tetratriaconta-1(29),16(32),17,19 (31),26(30),27-hexaene-20,33-dione] came in with an EC50 (Plasmodium falciparum, 72 h) of 18.9 nM. On the same count and under the same terms, the result for `CC[C@]12CCCCCCc3ccc4c(c3)[C@H](CC(C)(C)O4)NC(=O)c3ccc4c(c3)[C@@H](CCO4)N(C(=N)N1)C(=O)C2` [Example 12, (1R,5R,19S)-5-ethyl-3-imino-17,17-dimethyl-16,26-dioxa-2,4,20-triazahexacyclo[20. 6.2.22,5.212,15.014, 19.025,29] tetratriaconta-12,14,22(30),23, 25(29),31-hexaene-21,34-dione] reads 1 nM.

The term EC50 denotes the concentration that produces a half-maximal response.
